Measurements from ChEMBL document CHEMBL1157662, “Antimalarial and antileishmanial activities of histone deacetylase inhibitors with triazole-linked cap group” (Bioorg Med Chem, 2010).
≈ marks a conversion by molar mass, not a printed value. Calls of active or inactive are those of the source. The rule behind the calls is not given here.

Experiments:
[1] = test system: Leishmania donovani; test: Antileishmanial activity against Leishmania donovani promastigotes after 72 hrs by alamar blue assay; type: functional, organism-based
[2] = test system: Plasmodium falciparum; test: microbe, parasite or virus in culture; type: functional, organism-based, W2, Vero
Description: Antimalarial activity against chloroquine-resistant Plasmodium falciparum W2 infected in African green monkey (Cercopithecus aethiops) Vero cells assessed as parasite LDH activity after 72 hrs by Malstat reagent method

[3] = test system: Vero; test: Cytotoxicity against african green monkey Vero cells after 1 to 2 days by neutral red assay; type: ADME, cell-based, Chlorocebus sabaeus
[4] = Selectivity index, ratio of IC50 for african green monkey (Cercopithecus aethiops) Vero cells to IC50 for chloroquine-sensitive Plasmodium falciparum D6
[5] = Selectivity index, ratio of IC50 for african green monkey (Cercopithecus aethiops) Vero cells to IC50 for chloroquine-resistant Plasmodium falciparum W2
[6] = test system: Plasmodium falciparum; test: Ratio of suberoylanilide hydroxamic acid IC50 to compound IC50 for chloroquine-sensitive Plasmodium falciparum D6 infected in […]; type: functional
[7] = test system: Plasmodium falciparum; test: Ratio of suberoylanilide hydroxamic acid IC50 to compound IC50 for chloroquine-resistant Plasmodium falciparum W2 infected in […]; type: functional
[8] = test system: Plasmodium falciparum; test: microbe, parasite or virus in culture; conditions: D6, Vero, 72 h
Description: (§1) Antimalarial activity against chloroquine-sensitive Plasmodium falciparum D6 infected in African green monkey (Cercopithecus aethiops) Vero cells assessed as parasite LDH activity after 72 hrs by Malstat reagent method

[9] = test system: Leishmania donovani
[10] = test system: Plasmodium falciparum; conditions: vero
Description: as §1

[11] = test system: Leishmania donovani; test: Ratio of suberoylanilide hydroxamic acid IC50 to compound IC50 for Leishmania donovani promastigotes; type: functional
[12] = test system: Leishmania donovani; test: Ratio of suberoylanilide hydroxamic acid IC50 to compound IC50 for Leishmania donovani promastigotes
[13] = Leishmania donovani, 72 h, read-out: IC50
[14] = Plasmodium falciparum, W2, Vero, 72 h, read-out: IC50
[15] = Chlorocebus sabaeus, Vero, read-out: IC50

## COc1ccc2cc(-c3cn(CCCCCC(=O)NO)nn3)ccc2c1
[1]; Leishmania donovani, 72 h
  IC90: > 40 µg/mL
[1]; [13]
  IC50: 18 µg/mL (≈ 50.8 µM)
[2]; [14]
  IC50: 0.031 µg/mL (≈ 0.0875 µM)
[3]; [15]
  IC50: 2.85 µg/mL (≈ 8.04 µM)
[4]
  selectivity ratio: > 81.4
[5]
  selectivity ratio: > 91.9
[6]
  Ratio IC50: 5
[7]
  Ratio IC50: 5
[8]
  IC50: 0.035 µg/mL (≈ 0.0988 µM)

## COc1cccc(-c2cn(CCCCCC(=O)NO)nn2)c1
[1]
  IC50: Not Active
[2]; vero
  IC50: Not Active
[3]; vero
  IC50: Non-toxic
[9]
  IC90: inactive
[10]
  IC50: Not Active

## COc1ccc2cc(-c3cn(CCCCCCC(=O)NO)nn3)ccc2c1
[1]; Leishmania donovani, 72 h
  IC90: > 40 µg/mL
[1]; [13]
  IC50: 18.5 µg/mL (≈ 50.2 µM)
[2]; [14]
  IC50: 0.053 µg/mL (≈ 0.144 µM)
[3]; [15]
  IC50: 2.65 µg/mL (≈ 7.19 µM)
[4]
  selectivity ratio: 55.8
[5]
  selectivity ratio: 50
[6]
  Ratio IC50: 5
[7]
  Ratio IC50: 5
[8]
  IC50: 0.0475 µg/mL (≈ 0.129 µM)

## O=C(CCCCCn1cc(-c2ccc3ccccc3n2)nn1)NO
[1]; Leishmania donovani, 72 h
  IC90: 39 µg/mL (≈ 120 µM)
[1]; [13]
  IC50: 9.5 µg/mL (≈ 29.2 µM)
[2]; [14]
  IC50: 0.034 µg/mL (≈ 0.104 µM)
[3]; [15]
  IC50: 2.4 µg/mL (≈ 7.38 µM)
[4]
  selectivity ratio: 72.7
[5]
  selectivity ratio: 70.6
[6]
  Ratio IC50: 5
[7]
  Ratio IC50: 5
[11]
  Ratio: 2
[8]
  IC50: 0.033 µg/mL (≈ 0.101 µM)
[12]
  IC50 ratio: 2

## O=C(CCCCCn1cc(-c2ccc3cccnc3c2)nn1)NO
[1]; Leishmania donovani, 72 h
  IC90: > 40 µg/mL
[1]; [13]
  IC50: 18.5 µg/mL (≈ 56.9 µM)
[2]; [14]
  IC50: 0.033 µg/mL (≈ 0.101 µM)
[3]; vero
  IC50: Non-toxic
[4]
  selectivity ratio: > 90.7
[5]
  selectivity ratio: > 144
[6]
  Ratio IC50: 5
[7]
  Ratio IC50: 5
[8]
  IC50: 0.0525 µg/mL (≈ 0.161 µM)
